Data taken from patent US10709707B2, “Methods of treating ocular conditions” (Oyster Point Pharma, Inc., priority 2016, dated 2020).
Entries after “also recorded” stand apart in the source; their conditions may differ. Where two headings read alike, the source gives them in different places.

Key:
muscle receptor (α1β1δγ) = biological target: T1, muscle receptor (α1β1δγ) (Homo sapiens, UniProt P02708+P07510+Q07001); assay: Receptor function muscle receptor, TE671 cells; type: cell-based
T1 construct: endogenous in cells; host or cells: TE671 (TE-671) cells / membranes (per the earlier reading)

a6/a3b2b3 = a6/a3b2b3 (Homo sapiens, UniProt P17787+P32297+Q15825); assay: Receptor function a6/a3b2b3, Ca++ flux; type: cell-based
[1] = test system: neuronal nicotinic receptors; assay: In vitro binding (off-target receptors) at 10 μM; conditions: hemigalactarate salt
[2] = test system: muscarinic (non-selective) sites; assay: In vitro binding (off-target receptors) at 10 μM; conditions: hemigalactarate salt
[3] = test system: STZ rat model of diabetic neuropathy; assay: Mechanical allodynia, STZ rat model of diabetic neuropathy; type: in vivo, Rat: Sprague-Dawley
pKa = type: physicochemical
[4] = Stability study of drug substance; type: physicochemical
Procedure: A previous cGMP lot of Compound 1 was manufactured.
There was a slight decrease in assay value below the 98% specification at 6 month 40° C./75% RH and 9 month 30° C./65% RH. However, based on the minimal change at accelerated conditions and the stability of the real time data, the drug substance is currently considered to be stable for at least 36 months.

[5] = Single dose pharmacokinetics, monkey; type: in vivo, Cyno monkey; conditions: plasma; for AUC(0-t): t = 168 h, read-out: AUC0-1; for AUC(0-inf): read-out: AUCinf, unchanged parent
Procedure: In a monkey study, [^14C]-Compound 1 was given at 10 mg/kg orally or 5 mg/kg by iv infusion. Oral bioavailability in this study was about 30%.

[6] = 2-week and 13-week repeated dose TK studies, rat; type: in vivo
Procedure: In 2-week and 13-week repeated dose TK studies in rat, animals were dosed orally at 30, 100 or 200 mg/kg/day (2-week study) or at 30, 100 or 300 mg/kg/day (13-week study). […] In the 2-week study, there was a 1.2 to 2.2-fold increase in exposure from Day 1 to 15. In the 13-week study, there was a general increase from Day 1 to 29 and roughly equivalent exposure from Day 29 to 91.

[7] = cynomolgus monkey, Cyno monkey, 5 mg/kg [14C]-Compound 1, 20-minute intravenous
[8] = cynomolgus monkey, Cyno monkey, 10 mg/kg [14C]-Compound 1, oral

a6/a3b2b3, sequence (Q15825+P32297 fused with the stated changes): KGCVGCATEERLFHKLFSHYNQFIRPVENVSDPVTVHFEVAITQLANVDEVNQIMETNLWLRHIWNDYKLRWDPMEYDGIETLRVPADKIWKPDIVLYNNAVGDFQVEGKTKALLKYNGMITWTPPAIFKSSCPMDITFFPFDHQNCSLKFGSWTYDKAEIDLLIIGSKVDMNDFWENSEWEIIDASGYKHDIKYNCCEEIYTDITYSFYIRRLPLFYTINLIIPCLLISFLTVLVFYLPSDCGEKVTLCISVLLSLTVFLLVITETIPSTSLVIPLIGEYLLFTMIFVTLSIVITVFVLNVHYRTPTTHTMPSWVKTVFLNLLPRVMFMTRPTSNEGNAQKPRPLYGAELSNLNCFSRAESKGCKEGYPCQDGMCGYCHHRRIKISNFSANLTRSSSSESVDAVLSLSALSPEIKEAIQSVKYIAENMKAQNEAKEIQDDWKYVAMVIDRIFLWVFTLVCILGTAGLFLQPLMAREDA
a6/a3b2b3, sequence (P17787 26-502): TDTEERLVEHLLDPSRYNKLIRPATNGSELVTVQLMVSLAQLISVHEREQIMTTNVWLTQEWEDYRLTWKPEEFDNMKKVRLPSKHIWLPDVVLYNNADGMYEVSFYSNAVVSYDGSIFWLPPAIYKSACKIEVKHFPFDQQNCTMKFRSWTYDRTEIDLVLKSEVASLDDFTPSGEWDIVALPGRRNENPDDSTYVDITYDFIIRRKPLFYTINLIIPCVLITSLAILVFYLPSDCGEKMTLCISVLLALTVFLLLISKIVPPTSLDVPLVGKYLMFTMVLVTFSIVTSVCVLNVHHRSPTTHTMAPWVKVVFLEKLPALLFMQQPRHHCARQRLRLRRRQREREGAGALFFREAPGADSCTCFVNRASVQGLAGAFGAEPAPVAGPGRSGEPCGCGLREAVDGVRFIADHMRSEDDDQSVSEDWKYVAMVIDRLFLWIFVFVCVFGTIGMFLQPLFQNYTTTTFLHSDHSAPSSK
a6/a3b2b3, sequence (Q05901 25-458 partner limits assumed): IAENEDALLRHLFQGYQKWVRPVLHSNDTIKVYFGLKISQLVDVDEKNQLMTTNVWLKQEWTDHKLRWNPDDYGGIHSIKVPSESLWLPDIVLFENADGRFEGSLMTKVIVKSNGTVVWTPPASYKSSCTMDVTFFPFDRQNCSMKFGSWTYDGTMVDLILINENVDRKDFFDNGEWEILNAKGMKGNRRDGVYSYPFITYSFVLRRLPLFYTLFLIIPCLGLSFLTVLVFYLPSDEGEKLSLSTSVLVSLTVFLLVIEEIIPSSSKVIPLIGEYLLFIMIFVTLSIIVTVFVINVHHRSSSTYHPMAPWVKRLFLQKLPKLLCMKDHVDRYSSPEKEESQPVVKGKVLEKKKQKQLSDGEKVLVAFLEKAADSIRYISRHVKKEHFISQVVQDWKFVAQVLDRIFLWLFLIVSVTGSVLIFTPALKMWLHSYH
T1 sequence (P11230 24-501): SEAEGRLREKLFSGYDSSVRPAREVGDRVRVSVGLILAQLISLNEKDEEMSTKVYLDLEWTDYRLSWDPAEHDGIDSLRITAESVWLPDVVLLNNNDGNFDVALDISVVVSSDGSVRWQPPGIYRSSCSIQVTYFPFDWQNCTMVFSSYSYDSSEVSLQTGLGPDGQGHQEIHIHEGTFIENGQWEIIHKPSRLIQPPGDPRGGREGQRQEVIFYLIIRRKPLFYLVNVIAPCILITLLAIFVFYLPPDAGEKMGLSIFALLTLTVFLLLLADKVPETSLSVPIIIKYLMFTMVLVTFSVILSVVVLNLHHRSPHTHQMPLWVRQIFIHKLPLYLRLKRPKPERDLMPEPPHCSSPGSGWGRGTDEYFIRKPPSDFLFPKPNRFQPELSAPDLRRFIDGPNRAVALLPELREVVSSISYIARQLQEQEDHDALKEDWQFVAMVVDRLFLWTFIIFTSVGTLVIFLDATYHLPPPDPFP
T1 sequence (P02708 21-457): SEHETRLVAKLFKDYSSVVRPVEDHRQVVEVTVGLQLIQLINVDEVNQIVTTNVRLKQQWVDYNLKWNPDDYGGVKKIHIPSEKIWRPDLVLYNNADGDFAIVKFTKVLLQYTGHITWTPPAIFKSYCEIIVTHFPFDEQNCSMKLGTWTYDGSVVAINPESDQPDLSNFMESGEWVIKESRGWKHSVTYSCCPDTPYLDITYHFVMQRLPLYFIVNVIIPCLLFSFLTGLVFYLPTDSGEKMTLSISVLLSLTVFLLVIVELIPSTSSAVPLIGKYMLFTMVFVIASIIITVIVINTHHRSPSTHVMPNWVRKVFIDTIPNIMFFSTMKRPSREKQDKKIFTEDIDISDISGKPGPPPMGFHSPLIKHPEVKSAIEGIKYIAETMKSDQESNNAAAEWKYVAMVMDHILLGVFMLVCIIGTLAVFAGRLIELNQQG
T1 sequence (Q07001 22-517): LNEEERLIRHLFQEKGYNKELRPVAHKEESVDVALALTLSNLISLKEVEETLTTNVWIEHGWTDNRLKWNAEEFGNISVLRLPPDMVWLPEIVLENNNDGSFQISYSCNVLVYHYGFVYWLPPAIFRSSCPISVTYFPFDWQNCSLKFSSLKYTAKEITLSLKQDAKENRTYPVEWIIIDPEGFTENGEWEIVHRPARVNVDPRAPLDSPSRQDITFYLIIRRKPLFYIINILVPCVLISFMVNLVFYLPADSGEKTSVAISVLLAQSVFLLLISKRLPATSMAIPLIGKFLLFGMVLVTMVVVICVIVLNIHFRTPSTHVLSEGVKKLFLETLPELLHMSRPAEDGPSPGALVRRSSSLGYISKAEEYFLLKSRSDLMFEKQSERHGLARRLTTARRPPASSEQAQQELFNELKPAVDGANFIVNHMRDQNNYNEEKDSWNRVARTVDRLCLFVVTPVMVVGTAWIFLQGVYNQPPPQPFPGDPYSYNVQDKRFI
T1 sequence (P07510 23-517): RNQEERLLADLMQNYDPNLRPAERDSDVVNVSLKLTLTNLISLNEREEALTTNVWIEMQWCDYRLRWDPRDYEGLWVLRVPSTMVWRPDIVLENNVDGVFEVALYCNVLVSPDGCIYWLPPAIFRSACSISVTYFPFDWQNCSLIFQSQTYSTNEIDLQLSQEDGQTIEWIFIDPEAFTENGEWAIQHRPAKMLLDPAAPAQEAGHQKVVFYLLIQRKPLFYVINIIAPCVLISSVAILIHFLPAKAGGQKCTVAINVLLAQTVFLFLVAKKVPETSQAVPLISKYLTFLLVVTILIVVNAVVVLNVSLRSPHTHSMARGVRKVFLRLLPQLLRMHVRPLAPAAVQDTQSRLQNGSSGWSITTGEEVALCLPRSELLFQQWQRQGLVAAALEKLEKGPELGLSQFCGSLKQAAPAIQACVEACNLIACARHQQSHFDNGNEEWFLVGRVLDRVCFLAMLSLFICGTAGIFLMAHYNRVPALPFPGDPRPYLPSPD

## C(=C\[C@H]1CCNC1)/c1cncnc1 [Compound 1, (R)-5-((E)-2-pyrrolidin-3-ylvinyl)pyrimidine]
Muscle receptor (α1β1δγ)
  EC50: 15 µM
Muscle receptor (α1β1δγ); TE-671, Human muscle-type, Ca++ Flux
  Emax: 42%
Muscle receptor (α1β1δγ); TE-671, Human muscle-type, Rb+ Flux, single point
  Emax: 12%
Muscle receptor (α1β1δγ); TE-671, TE671 cells
  Emax: 42%
a6/a3b2b3; Human a6/a3b2b3
  (Imax): 49
  IC50: 2.8 µM
a6/a3b2b3; Human a6/a3b2b3, Ca++ Flux
  DC50: 0.031 µM
  Dmax: 99%
  EC50: 0.47 µM
  Emax: 92%
[1]
  binding affinity: nicotinic receptors (100%), the only
[2]
  binding affinity: sites (51%).
[3]; 0.5 and 2 hr post-dosing, Compound 1 0.1 and 1 mg/kg po, Gabapentin 100 mg/kg ip
  allodynia, acute dosing: significantly reversed; also recorded: Acute Dosing - Compound 1 reversed
[3]; animal models of neuropathic pain, compared to gabapentin
  onset of action: 30 min
[3]; once daily 0.1, 1, 10 mg/kg po, all doses, 6 weeks post-STZ dosing
  allodynia, repeat dosing: significantly reversed; also recorded: all dosessignificantly reduced
[3]; repeat dosing, 4 weeks post-dosing
  dose levels producing reversal of mechanical allodynia: 4 weeks post-dosing, no dose
pKa; read-out: pKa(1)
  pKa: 1.73
pKa; read-out: pKa(2)
  pKa: 10.3
[4]; 6 month, 40° C./75% RH
  assay value: < 98%
[4]; 9 month, 30° C./65% RH
  assay value: < 98%
[4]; 25° C./60% RH, 1 M
  Assay (HPLC-UV): 102.4%
  Related Substances, RRT = 0.26: 0.09 % w/w
  Total Related Substances: 0.09%
  Water Content (Karl Fischer): 12.10 % w/w
[4]; 25° C./60% RH, 3 M
  Assay (HPLC-UV): 100.2%
  Related Substances, RRT = 0.26: 0.09 % w/w
  Total Related Substances: 0.09%
  Water Content (Karl Fischer): 12.25 % w/w
[4]; 25° C./60% RH, 6 M
  Assay (HPLC-UV): 98.9%
  Total Related Substances: 0.05%
  Water Content (Karl Fischer): 12.04 % w/w
[4]; 25° C./60% RH, 9 M
  Assay (HPLC-UV): 99.7%
  Related Substances, RRT = 0.26: 0.09 % w/w
  Total Related Substances: 0.12%
  Water Content (Karl Fischer): 11.52 % w/w
[4]; 25° C./60% RH, 12 M
  Assay (HPLC-UV): 101.2%
  Chiral Purity: 100 % ee
  Related Substances, RRT = 0.18: 0.10 % w/w
  Related Substances, RRT = 0.88: 0.05 % w/w
  Total Related Substances: 0.16%
  Water Content (Karl Fischer): 11.52 % w/w
[4]; 25° C./60% RH, 18 M
  Assay (HPLC-UV): 100.4%
  Related Substances, RRT = 0.26: 0.07 % w/w
  Total Related Substances: 0.07%
  Water Content (Karl Fischer): 11.50 % w/w
[4]; 25° C./60% RH, 24 M
  Assay (HPLC-UV): 100.0%
  Chiral Purity: 100 % ee
  Related Substances, RRT = 0.26: 0.05 % w/w
  Total Related Substances: 0.05%
  Water Content (Karl Fischer): 11.42 % w/w
[4]; 25° C./60% RH, 36 M
  Assay (HPLC-UV): 99.7%
  Chiral Purity: 100 % ee
  Related Substances, RRT = 0.26: 0.04 % w/w
  Total Related Substances: 0.04%
  Water Content (Karl Fischer): 11.53 % w/w
[4]; 25° C./60% RH, Initial
  Assay (HPLC-UV): 100.9%
  Chiral Purity: 100 % ee
  Related Substances, RRT = 0.26: 0.05 % w/w
  Total Related Substances: 0.05%
  Water Content (Karl Fischer): 11.36 % w/w
[4]; real time 25° C./60% RH data
  time for which drug substance is considered stable: at least 36 months
[5]; [7]
  Tmax: 0.333 h
  AUC(0-t): 1530 ng·h/mL
[5]; cynomolgus monkey, Cyno monkey, 5 mg/kg [14C]-Compound 1, 20-minute intravenous, read-out: t1/2 (converted)
  half-life: 2.1 h
[5]; [8]
  Tmax: 2.25 h
  AUC(0-t): 942 ng·h/mL
[5]; cynomolgus monkey, Cyno monkey, 10 mg/kg [14C]-Compound 1, oral, read-out: F (oral bioavailability)
  bioavailability: 31.1%
[5]; cynomolgus monkey, Cyno monkey, 10 mg/kg [14C]-Compound 1, oral, read-out: t1/2 (converted)
  half-life: 1.9 h
[5]; cynomolgus, 5 mg/kg iv infusion
  AUC(0-inf): 1530 ng·h/mL
[5]; cynomolgus, Cyno monkey, 5 mg/kg [14C]-Compound 1, 20-minute intravenous
  Cmax: 2030 ng/mL
[5]; cynomolgus, Cyno monkey, 10 mg/kg [14C]-Compound 1, oral
  Cmax: 254 ng/mL
[5]; cynomolgus, oral, [14C]-Compound 1, 10 mg/kg orally vs 5 mg/kg iv infusion, read-out: Oral bioavailability
  bioavailability: ~30%
[5]; cynomolgus, po, 10 mg/kg orally
  AUC(0-inf): 969 ng·h/mL
[5]; cynomolgus, po, 10 mg/kg orally, read-out: half-life, unchanged parent (converted)
  half-life: 1.9 h
[6]; Days 1 and 15 (2-week), Days 1, 29 and 91 (13-week)
  exposure parameters (Cmax and AUC0-24) vs dose: increased roughly in proportion to dose
[6]; both sexes, rat, plasma, oral 30-300 mg/kg/day, 2-week and 13-week studies
  Tmax: 0.5 to 2 h
[6]; both studies
  exposure in females compared with males: generally higher
